Earlier results on one molecule are cited in US20080038318A1, “Composition; Use Of A Composition And A Method For Treating Obesity” (priority 2004, published 2008).

Each structure is given as a SMILES string.

In the series the test system is normal and obese volunteers. The note with it: in vivo.

Turning to `CCCCCCCCCCC[C@@H](C[C@@H]1OC(=O)[C@H]1CCCCCC)OC(=O)[C@H](CC(C)C)NC=O` [orlistat], the “reduction of the absorption of triacylglycerols” value is reported as 30%.
